Read-outs that look alike come from different tables or passages of the source.
Target: T1, XccFPR (Xanthomonas citri pv. citri, UniProt A0AAI7ZED9)
T1 sequence (A0AAI7ZED9 1-259): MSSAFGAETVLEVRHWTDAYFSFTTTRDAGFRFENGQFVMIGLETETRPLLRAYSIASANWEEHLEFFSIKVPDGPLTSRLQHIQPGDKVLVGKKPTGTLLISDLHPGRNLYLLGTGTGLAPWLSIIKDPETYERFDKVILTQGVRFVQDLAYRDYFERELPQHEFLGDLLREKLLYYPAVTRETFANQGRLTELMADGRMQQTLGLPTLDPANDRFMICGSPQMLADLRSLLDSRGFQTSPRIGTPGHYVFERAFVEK
Assay: NADPH-dependent DCPIP diaphorase activity of XccFPR, dose-response of inhibitors
Format: biochemical, Xanthomonas citri subsp. citri
Description: When assayed in regular cuvettes, the DCPIP diaphorase activity of XccFPR was determined at 25 °C using a Cary 100 (Agilent Technologies Inc., Santa Clara, CA, USA) spectrophotometer as previously established. […] Positive controls (without any hit compound) were included in every reaction set. […] The DMSO concentration was kept at 2% in all samples. All kinetic experiments were performed in triplicate. The effect of the inhibitors on Km and kcat was determined by fitting the datasets to the Michaelis-Menten model. Additionally, data were globally fit to either Lineweaver-Burk equations for uncompetitive or non-competitive inhibition, yielding Ki for each compound (Equations (1) and (2), respectively).

[1] = 25 °C, 2% DMSO, pH 8.0, 20 nM XccFPR, 95 µM DCPIP, 50 μM NADPH
[2] = 25 °C, 50 mM Tris/HCl, 2% DMSO, pH 8.0, 20 nM XccFPR, 95 µM DCPIP, 50 μM NADPH
[3] = 25 °C, 50 mM Tris/HCl, 2% DMSO, pH 8.0, 20 nM XccFPR, 95 µM DCPIP, 50 μM NADPH, compound 0–800 μM

Molecule	IC50 [µM]	% Inhibition at ICmax [1]	ICmax (concentration causing maximal inhibition) [2] [µM]	IC50 [3] [µM]	% Inhibition at ICmax (25 °C, 2% DMSO, pH 8.0, 20 nM XccFPR, 95 µM DCPIP, 50 μM NADPH, listed as 2) [%]
CCCCc1ccc(NC(=O)CSc2nc(C3CCCCC3)c(C#N)c(=O)[nH]2)c(C)c1 [C28, N-(4-butyl-2-methylphenyl)-2-[(5-cyano-4-cyclohexyl-6-oxo-1,6-dihydropyrimidin-2-yl)sulfanyl]acetamide]	> 652	81 ± 2%	–	–	–
O=C(COC(=O)c1cccc(I)c1)c1ccccc1 [C35, 2-oxo-2-phenylethyl 3-iodobenzoate]	63 ± 1	100 ± 1%	–	–	–
Cc1ccc(C)c(CSc2nc(C3CCCCC3)c(C#N)c(=O)[nH]2)c1 [C24, 4-cyclohexyl-2-{[(2,5-dimethylphenyl)methyl]sulfanyl}-6-oxo-1,6-dihydropyrimidine-5-carbonitrile]	35 ± 1	43 ± 4%	–	–	–
Cc1oc(C(=O)NNC(=O)Nc2cccc(C(F)(F)F)c2)nc1-c1ccccc1 [C9, 5-methyl-4-phenyl-N-({[3-(trifluoromethyl)phenyl]carbamoyl}amino)-1,3-oxazole-2-carboxamide]	147 ± 1	60 ± 4%	–	–	–
Cc1cc(C)c2cc(C(=O)Nc3ccc4c(c3)OCO4)[nH]c2c1 [C20, N-(2H-1,3-benzodioxol-5-yl)-4,6-dimethyl-1H-indole-2-carboxamide]	53 ± 2	100 ± 1%	–	–	–
CCOC(=O)CNC(=O)CCc1cc(OC)c(OC)c(OC)c1 [C33, ethyl 2-[3-(3,4,5-trimethoxyphenyl)propanamido]acetate]	> 1920	~53%	–	–	–
O=[N+]([O-])c1ccc(Oc2c(Cl)cccc2Cl)cc1 [C4, 1,3-dichloro-2-(4-nitrophenoxy)benzene]	36 ± 1	86 ± 1%	–	–	–
N#CC(NCc1ccccc1)c1ccc(Cl)c(Cl)c1 (stereo not shown) [C13, 2-(benzylamino)-2-(3,4-dichlorophenyl)acetonitrile]	95 ± 1	80 ± 3%	–	–	–
CCOC(=O)C1=C(C)NC(C)=C(C(=O)OCC)C1c1ccc(-c2cc(C(F)(F)F)ccc2Cl)o1 [C21, 3,5-diethyl 4-{5-[2-chloro-5-(trifluoromethyl)phenyl]furan-2-yl}-2,6-dimethyl-1,4-dihydropyridine-3,5-dicarboxylate]	14 ± 1	62 ± 7%	–	–	–
N#CC1=C(N)OC2=C(COc3ccc(F)cc32)C1c1ccc(Cl)cc1 (stereo not shown) [C34, 2-amino-4-(4-chlorophenyl)-9-fluoro-4H,5H-pyrano[3,2-c]chromene-3-carbonitrile]	210 ± 1	~87%	–	–	–
Nc1c(Cl)cc(C(=O)Nc2cc(Cl)c(Cl)cc2Cl)cc1Cl [C10, 4-amino-3,5-dichloro-N-(2,4,5-trichlorophenyl)benzamide]	98 ± 1	57 ± 7%	–	–	–
CSc1sc(NC(=O)N2CCOCC2)c(-c2ccc(Cl)cc2)c1C#N [D4, N-[3-(4-chlorophenyl)-4-cyano-5-(methylsulfanyl)thiophen-2-yl]morpholine-4-carboxamide]	113 ± 1	78 ± 2%	–	–	–
O=C(O/N=C/Nc1ncc(-c2ccc(Br)s2)s1)c1ccc([N+](=O)[O-])cc1 [C25, (E)-({[5-(5-bromothiophen-2-yl)-1,3-thiazol-2-yl]amino}methylidene)amino 4-nitrobenzoate]	91 ± 1	~91%	–	–	–
Cc1cccc(C)c1NC(=O)Nc1cccs1 [D7, 1-(2,6-dimethylphenyl)-3-thiophen-2-ylurea]	151 ± 1	84 ± 1%	–	–	–
COc1cc(C2SCCS2)cc([N+](=O)[O-])c1OS(=O)(=O)c1cc(Cl)ccc1Cl [C11, 4-(1,3-dithiolan-2-yl)-2-methoxy-6-nitrophenyl 2,5-dichlorobenzene-1-sulfonate]	78 ± 1	92 ± 5%	–	–	–
N#CC(C#N)=C1SC=C(c2ccc(Cl)cc2)S1 [C23, 2-[4-(4-chlorophenyl)-2H-1,3-dithiol-2-ylidene]propanedinitrile]	> 604	73 ± 3%	–	–	–
O=c1c2ccccc2[se]n1-c1ccccc1 [C2, 2-Phenyl-1,2-benzoselenazol-3-one(ebselen), reference compound]	–	over 90%	300 ± 1	27 ± 1	95 ± 3
C#CC1(NC(=O)NCCCCCCNC(=O)NC2(C#C)CCCCC2)CCCCC1 [C7, 3-(1-ethynylcyclohexyl)-1-(6-{[(1-ethynylcyclohexyl)carbamoyl]amino}hexyl) urea]	85 ± 16	97 ± 7%	–	–	–
O=C(CCn1c(=O)oc2ccccc21)Sc1ccc(Cl)cc1Cl [C15, 3-{3-[(2,4-dichlorophenyl)sulfanyl]-3-oxopropyl}-2,3-dihydro-1,3-benzoxazol-2-one]	30 ± 1	–	–	–	–

Molecule	IC50 [µM]	% Inhibition at ICmax [1]	ICmax (concentration causing maximal inhibition) [2] [µM]	IC50 [3] [µM]	% Inhibition at ICmax (25 °C, 2% DMSO, pH 8.0, 20 nM XccFPR, 95 µM DCPIP, 50 μM NADPH, listed as 2) [%]
CC(C)S(=O)(=O)c1c(SCC#N)sc(C#N)c1N [C27, 3-amino-5-[(cyanomethyl)sulfanyl]-4-(propane-2-sulfonyl)thiophene-2-carbonitrile]	89 ± 1	92 ± 3%	–	–	–
CCOC(=O)c1c(C)c(C#N)c(NC(=O)c2ccccc2)n1-c1ccccc1 [C14, ethyl 5-benzamido-4-cyano-3-methyl-1-phenyl-1H-pyrrole-2-carboxylate]	127 ± 1	85 ± 4%	–	–	–
benzalkonium chloride [C3, reference compound]	–	31 ± 8%	300 ± 3	190 ± 1	–
CSc1sc(C(=O)O)c(-c2cccc(Cl)c2)c1C#N [D6, 3-(3-chlorophenyl)-4-cyano-5-(methylsulfanyl)thiophene-2-carboxylic acid]	> 1500	–	–	–	–
Cc1ccc2oc(=O)n(CCC(=O)NNC(=O)c3nc(-c4cccs4)no3)c2c1 [C32, 3-(5-methyl-2-oxo-2,3-dihydro-1,3-benzoxazol-3-yl)-N'-[3-(thiophen-2-yl)-1,2,4-oxadiazole-5-carbonyl]propanehydrazide]	> 2720	~56%	–	–	–
O=C(Nc1cccc(Cl)c1)Nc1ccc(F)c(Cl)c1 [D3, 1-(3-Chloro-4-fluoro-phenyl)-3-(3-chloro-phenyl)-urea]	> 5000	–	–	–	–
Cc1nc(-c2cc(C#N)c(SCCNS(=O)(=O)c3cccc(C(F)(F)F)c3)nc2C)cs1 [C19, N-(2-{[3-cyano-6-methyl-5-(2-methyl-1,3-thiazol-4-yl)pyridin-2-yl]sulfanyl}ethyl)-3-(trifluoromethyl)benzene-1-sulfonamide]	17 ± 1	–	–	–	–
O=C(Nc1ccccc1-c1nc(-c2ccc(Cl)cc2)no1)C(F)(F)F [C29, N-{2-[3-(4-chlorophenyl)-1,2,4-oxadiazol-5-yl]phenyl}-2,2,2-trifluoroacetamide]	11 ± 2	27 ± 2%	–	–	–
Brc1csc(C2SCCS2)c1 [C31, 2-(4-bromothiophen-2-yl)-1,3-dithiolane]	90 ± 1	85 ± 1%	–	–	–
O=C(Nc1cccc(Cl)c1)Nc1ccccc1NS(=O)(=O)c1cccs1 [D1, 3-(3-chlorophenyl)-1-[2-(thiophene-2-sulfonamido)phenyl]urea]	76 ± 1	98 ± 1%	–	–	–
O=C1/C(=C/c2cccs2)CCC/C1=C\c1cccs1 [C22, (2E,6E)-2,6-bis[(thiophen-2-yl)methylidene]cyclohexan-1-one]	58 ± 2	100 ± 4%	–	–	–
O=C(O)c1c2c(nc3ccccc13)CSc1ccc(Cl)cc1-2 [C30, 2-chloro-6H-5-thia-7-azatetraphene-12-carboxylic acid]	29 ± 1	–	–	–	–
Nc1ccccc1Sc1cc(C(F)(F)F)cc([N+](=O)[O-])c1Sc1ccccc1N [C18, 2-({2-[(2-aminophenyl)sulfanyl]-6-nitro-4-(trifluoromethyl)phenyl}sulfanyl)aniline]	24 ± 1	–	–	–	–
COC(=O)c1sccc1NC(=O)Cc1cccs1 [C26, methyl 3-[2-(thiophen-2-yl)acetamido]thiophene-2-carboxylate]	33 ± 2	–	–	–	–
COc1ccc(C(C)=O)cc1CO/N=C1\CSCc2ccccc21 [C16, 1-{3-[({[(4Z)-3,4-dihydro-1H-2-benzothiopyran-4-ylidene]amino}oxy)methyl]-4-methoxyphenyl}ethan-1-one]	58 ± 1	79 ± 6%	–	–	–
Clc1ccc2sc(SCc3ccccc3)nc2c1 [C8, 2-(benzylsulfanyl)-5-chloro-1,3-benzothiazole]	79 ± 1	88 ± 9%	–	–	–
CC(C)N(C(=O)c1ccc(-c2ccccc2F)cc1)C(C)C [C6, 4-(2-fluorophenyl)-N,N-bis(propan-2-yl)benzamide]	> 605	~70%	–	–	–
O=C(CSc1nc2cc(Cl)ccc2o1)Nc1cc(C(F)(F)F)cc(C(F)(F)F)c1 [C5, N-[3,5-bis(trifluoromethyl)phenyl]-2-[(5-chloro-1,3-benzoxazol-2-yl)sulfanyl]acetamide]	46 ± 1	–	–	–	–
Cn1cc(Br)c(/C=N/Nc2ccc(Cl)cc2Cl)n1 [C17, 4-bromo-3-[(1E)-[2-(2,4-dichlorophenyl)hydrazin-1-ylidene]methyl]-1-methyl-1H-pyrazole]	27 ± 2	–	–	–	–

From PMC5943930, “Identification of Inhibitors Targeting Ferredoxin-NADP^+ Reductase from the Xanthomonas citri subsp. citri Phytopathogenic Bacteria” (Molecules : A Journal of Synthetic Chemistry and Natural …, 2017)
